Source: BindingDB's records for patent US10799494 (2020)

Biological target: T1, Probable integral membrane cytochrome D ubiquinol oxidase (Subunit II) CydB (Cytochrome BD-I oxidase subunit II) (Mycobacterium tuberculosis (strain ATCC 25618 / H37Rv), UniProt O06139)
T1 sequence (O06139 whole entry): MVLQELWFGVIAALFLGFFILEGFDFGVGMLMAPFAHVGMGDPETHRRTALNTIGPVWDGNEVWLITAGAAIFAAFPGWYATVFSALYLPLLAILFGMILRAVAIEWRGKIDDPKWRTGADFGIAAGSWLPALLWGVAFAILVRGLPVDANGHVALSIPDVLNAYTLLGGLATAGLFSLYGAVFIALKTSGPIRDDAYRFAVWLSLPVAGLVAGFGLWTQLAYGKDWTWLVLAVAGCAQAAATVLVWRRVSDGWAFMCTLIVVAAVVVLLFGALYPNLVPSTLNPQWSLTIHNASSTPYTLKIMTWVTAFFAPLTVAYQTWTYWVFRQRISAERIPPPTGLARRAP
Assay: Mtb cytochrome bd inhibition assay

Compound	IC50
Cc1c(-c2ccc(Cc3ccccc3)cc2)[nH]c2ccccc2c1=O [US10799494, Compound CK-2-88]	20 nM
Cc1c(-c2ccc(Oc3ccc(F)cc3)nc2)[nH]c2ccccc2c1=O [US10799494, Compound CK-3-14]	10600 nM
Cc1c(-c2ccc(Oc3ccc(OC(F)(F)F)cc3)nc2)[nH]c2ccccc2c1=O [US10799494, Compound CK-3-22]	140 nM
COc1c(C)c(-c2ccc(Cc3ccccc3)cc2)nc2ccccc12 [US10799494, Compound CK-3-23]	3600 nM
CCOC(=O)c1c(-c2ccc(Cc3ccc(OC(F)(F)F)cc3)cc2)[nH]c2ccccc2c1=O [US10799494, Compound GN-1710]	250 nM
Cc1c(-c2ccc(N3CCCCC3)cc2)[nH]c2cc(F)cc(F)c2c1=O [US10799494, Compound MTD-403]	270 nM
Cc1c(-c2ccc(-c3ccc(C(F)(F)F)nc3)nc2)[nH]c2ccccc2c1=O [US10799494, Compound PG-128]	4470 nM
Cc1[nH]c2ccccc2c(=O)c1-c1ccc(Oc2ccc(OC(F)(F)F)cc2)cc1 [US10799494, Compound PG-203]	70 nM
O=c1cc(-c2ccc(Cc3ccc(OC(F)(F)F)cc3)cc2)[nH]c2ccccc12 [US10799494, Compound RKA-70]	750 nM
O=c1cc(-c2ccc(Cc3ccc(OC(F)(F)F)cc3)cc2)n(O)c2ccccc12 [US10799494, Compound RKA-73]	310 nM
COc1ccc2c(=O)c(C)c(-c3ccc(Oc4ccc(OC(F)(F)F)cc4)nc3)[nH]c2c1 [US10799494, Compound RKA-259]	3600 nM
Cc1c(-c2ccc(N3CCCCC3)cc2)[nH]c2ccccc2c1=O [US10799494, Compound RKA-307]	440 nM
COc1ccc2c(=O)c(C)c(-c3ccc(N4CCCCC4)cc3)[nH]c2c1 [US10799494, Compound RKA-310]	1400 nM
Cc1c(-c2ccc(-c3ccc(OC(F)(F)F)cc3)nc2)[nH]c2ccccc2c1=O [US10799494, Compound SL-2-25]	290 nM
O=c1cc(-c2cnn(Cc3ccc(OC(F)(F)F)cc3)c2)[nH]c2ccccc12 [US10799494, Compound WDH-1W-5]	15800 nM
Cc1c(-c2cnn(Cc3ccc(OC(F)(F)F)cc3)c2)[nH]c2ccccc2c1=O [US10799494, Compound WDH-2A-9]	6500 nM
Cc1c(-c2ccc(-c3ccc(C(F)(F)F)cc3)nc2)[nH]c2ccccc2c1=O [US10799494, Example RKA 142]	2020 nM
CC(C)c1c(-c2cnn(Cc3ccc(OC(F)(F)F)cc3)c2)[nH]c2ccccc2c1=O [US10799494, Example WDH-2G-6]	82 nM
